From patent US20190292546A1, “TLR3 AGONIST FOR USE FOR INDUCING APOPTOSIS IN SENESCENT CANCER CELLS” (Centre Léon-Bérard, priority 2016, published 2019)
“Also recorded” adds a separate entry of the source.

How the values were obtained:
[1] = test system: NCI-H292 human Non-Small-Cell Cancer Cells; experiment: Senescence status of Paclitaxel-Treated Cells (phase-contrast morphology, SA-β-GAL, IL-8); format: cell-based; settings: 4 nM paclitaxel
Description: (§1) NCI-H292 human Non-Small-Cell Cancer Cells were plated at 5000 cells/cm^2 in a 6-well plate in RPMI supplemented with 10% FCS and 1% Hepes/1% NAPy/PS. They were treated after 16-24 hours of plating and for 7 to 10 days with 4 nM paclitaxel (Sigma) or with DMSO (“solvent”), with a change of medium on day 4. The following tests were then performed to ascertain the Paclitaxel-Treated Cells' senescence status.
(§2) 1) An inverted phase-contrast light microscope was used at 40× magnification to evaluate morphology of the Paclitaxel-Treated Cells. […] 2) The senescence-associated β-galactosidase [SA-β-GAL] activity was measured in the Paclitaxel-Treated Cells described above using the Senescence beta-galactosidase Staining Kit (Cell Signaling Technology) (FIG. 2). 3) The secretion of IL-8 as part of the senescence-associated secretome (Tchkonia et al., 2013; J Clin Invest. 123(3):966-72) was quantified in the culture supernatant of the Paclitaxel-Treated Cells using an ELISA kit (Biolegend Kit hulL8), and read on a TECAN microplate reader).

[2] = test system: NCI-H292 human Non-Small-Cell Cancer Cells; experiment: IL-8 secretion in culture supernatant by ELISA; format: cell-based; settings: 4 nM paclitaxel, 1, 3 or 7 days, last 24H of culture, FIG. 3
Description: NCI-H292 human Non-Small-Cell Cancer Cells were plated at 5000 cells/cm^2 in a 6-well plate in RPMI supplemented with 10% FCS and 1% Hepes/1% NAPy/PS. […] The following tests were then performed to ascertain the Paclitaxel-Treated Cells' senescence status.
as §2

NCI-H292 cells = experiment: TLR3 expression by intracellular staining and flow cytometry; format: cell-based, human; settings: 7 days of culture with paclitaxel 4 nM, anti-TLR3.1 antibody, FIG. 4
Description: To ascertain that TLR3 expression was not lost upon senescence, Paclitaxel-Treated Cells were harvested, fixed and permeabilized with the Cytoperm/Cytofix kit (Becton Dickinson), then stained at 4° C. for TLR3 (anti-TLR3.1 antibody (Dendritics)+goat anti-mouse Alexa 647) and analyzed on a Becton Disckison FACSCalibur flow cytometer.

[3] = test system: TLR3 WT and TLR3 KO NCI-H292 untreated or Paclitaxel-Treated Cells; experiment: TLR3-triggered apoptosis (Annexin V-FITC/PI flow cytometry) in Paclitaxel-Treated Cells; format: cell-based, human; settings: 4 μg/ml Poly(I:C), 24 hours, paclitaxel-induced senescent vs untreated NCI-H292, FIG. 5
Description: as §1
TLR3 WT and TLR3 KO NCI-H292 untreated or Paclitaxel-Treated Cells were incubated for 24 hours with 4 μg/ml Poly(I:C) (Invivogen), then cells were stained at 4° C. with Annexin V-FITC and PI (Biolegend) and analyzed on a Becton Disckison FACSCalibur flow cytometer.

[4] = test system: Untreated or Radiation-Induced Senescent WT and TLR3 KO NCI-H292 Cells; experiment: TLR3-triggered apoptosis (Annexin V-FITC PI flow cytometry) in Radiation-Induced Senescent Cells; format: cell-based, human; settings: 10 μg/ml Poly(I:C), 24 hours, senescence by 8 Grey irradiation vs untreated NCI-H292, FIG. 6
Description: NCI-H292 human Non-Small-Cell Cancer Cells were plated at 5000 cells/cm^2 in a 6-well plate in RPMI supplemented with 10% FCS and 1% Hepes/1% NAPy/PS. They were irradiated with 8 Grey 16 hours after plating, and the medium was changed right after irradiation.
(§3) Radiation-Induced Senescent Cells' susceptibility to TLR3-triggered apoptosis was measured. Untreated or Radiation-Induced Senescent WT and TLR3 KO NCI-H292 Cells were incubated for 24 hours with 10 μg/ml Poly(I:C) (Invivogen), then cells were stained at 4° C. with Annexin V-FITC PI (Biolegend) and analyzed on a Becton Disckison FACSCalibur flow cytometer.

[5] = test system: Untreated or Oxidative Stress-induced Senescent WT and TLR3 KO NCI-H292 Cells; experiment: TLR3-triggered apoptosis (Annexin V-FITC flow cytometry) in Oxidative Stress-induced Senescent Cells; format: cell-based, human; settings: 10 μg/ml Poly(I:C), 24 hours, senescence by 300 μM H2O2 vs untreated NCI-H292, FIG. 7
Description: NCI-H292 human Non-Small-Cell Cancer Cells were plated at 5000 cells/cm^2 in a 6-well plate in RPMI supplemented with 10% FCS and 1% Hepes/1% NAPy/PS. They were treated with 300 μM H2O2 16 hours after plating, and the medium was changed 1 hour after H2O2 treatment.
as §3, with “Oxidative Stress-induced” for “Radiation-Induced”, “V-FITC” for “V-FITC PI”

Compound	morphology of the Paclitaxel-Treated Cells (observed changes) ([1]; 7 to 10 days, NCI-H292, phase-contrast microscopy 40x, FIG. 1)	senescence status of the cells ([1]; NCI-H292, FIGS. 1-3)	secretion of IL-8 in the culture supernatant [2]	expression of TLR3 by NCI-H292 cells (NCI-H292 cells)	susceptibility to TLR3-triggered apoptosis [3]	susceptibility to TLR3-triggered apoptosis [4]	susceptibility to TLR3-triggered apoptosis [5]
CC(=O)O[C@H]1C(=O)[C@@]2(C)[C@H]([C@H](OC(=O)c3ccccc3)[C@]3(O)C[C@H](OC(=O)[C@H](O)[C@@H](NC(=O)c4ccccc4)c4ccccc4)C(C)=C1C3(C)C)[C@]1(OC(C)=O)CO[C@@H]1C[C@@H]2O [Paclitaxel, paclitaxel]	a stop in cell division and enlargement in size	have become senescent	Large amounts of IL-8	increased	–	–	–
Polyinosine-polycytidylic acid [Poly(I:C)]	–	–	–	–	more sensitive to TLR3-triggered apoptosis	induces apoptosis; also recorded: more sensitive to TLR3-triggered apoptosis	induces apoptosis; also recorded: more sensitive to TLR3-triggered apoptosis
